# Experimental data: patent US20130252331A1, “COMPOSITIONS AND METHODS FOR MODULATING METABOLISM” (priority 2010, published 2013)
# Experiments:
# [1] = Unspecified biological assay; conditions: assay not specified
# [2] = tested on: 3T3L1 cells; experiment: Adipogenesis of 3T3L1 cells, Oil Red O staining for lipid accumulation; type: cell-based; conditions: 3T3L1 cells differentiated for eight days in increasing concentrations
# Source text: FIG. 1 includes eight micrographs showing that the inhibition of BET protein family members blocks adipogenesis in a dose dependent manner in 3T3L1 cells, which is a cell line that is widely used as a model for adipogenesis. […] Following drug treatment cells were stained with Oil Red O as a measure of lipid accumulation that indicates the degree of adipocyte differentiation.
# 3T3L1 cells are a well characterized cell type that can be differentiated into fat cells that contain large lipid droplets. […] The cells were differentiated for eight days. On the final day, the cells were stained with Oil Red O, which stains for lipid accumulation in the cells.
# [3] = tested on: genes that control fat accumulation in liver; experiment: Liver RNA expression of genes that control fat accumulation in ob/ob mice; type: in vivo, mouse; conditions: two weeks of treatment
# Experimental: Following treatment, the organs were harvested and liver RNA was isolated to measure gene expression profiles. The expression levels of a panel of genes that function in the control of fat accumulation in liver were measured.
# [4] = tested on: ob/ob mice; experiment: Liver and subcutaneous fat weight and liver H&E histology in ob/ob mice
# Experimental: The sections were stained with hematoxylin and eosin.
# Five week old Ob/ob mice were treated with either vehicle (control) or a chemical inhibitor of the BET protein family (JQ) for approximately two weeks. Following treatment the mice were euthanized and organs were harvested and weighed. The weight of the livers and subcutaneous fat were determined.
# [5] = tested on: ob/ob mice; experiment: Weight gain, food intake and feed efficiency in ob/ob mouse obesity model; type: in vivo; conditions: 50 mg/kg, 14 days
# Source text: FIGS. 3A-3E are graphs showing that inhibition of BET family members blocks weight gain in ob/ob mice, a murine obesity model that lacks leptin.
# Ob/ob mice are a well established mouse obesity model that gains weight rapidly on a normal mouse chow diet. […] Without wishing to be bound by theory, it is likely that the disparity is due to differences in the way that ob/ob mice treated with JQ are metabolizing food relative to untreated ob/ob mice.
# [6] = tested on: C/EBPα; experiment: C/EBPα gene expression in 3T3L1 cells during adipocyte differentiation (RT-PCR); type: cell-based; conditions: 500 nM, first four days of differentiation
# Experimental: (§1) C/EBPα and PPARγ are essential, positive regulators of adipogenesis. […] Results were obtained using RT-PCR.
# (§2) Gene expression levels of two key proteins that function in fat cell differentiation, C/EBPα and PPARγ, were measured over the first four days of differentiation.
# [7] = tested on: C57B/6 male mice; experiment: Insulin tolerance test in C57B/6 mice on high fat diet; type: in vivo, mouse
# Experimental: FIG. 9B is a graph of the area under the curve (AUC) of the data in FIG. 9A.
# 8 week old C57B/6 male mice were started on a high fat diet containing 60% kcal fat. […] Body weight was measured every week. The mice were then examined for the degree of insulin resistance by insulin tolerance testing. […] Following insulin injection blood glucose was measured at the indicated time points.
# [8] = tested on: PPARγ; experiment: PPARγ gene expression in 3T3L1 cells during adipocyte differentiation (RT-PCR); type: cell-based; conditions: 500 nM, first four days of differentiation
# Experimental: as §1, §2
# [9] = approximately two weeks of treatment
compound,measurement,setting,value
Cc1sc2c(c1C)C(c1ccc(Cl)cc1)=N[C@@H](CC(=O)NN)c1nnc(C)n1-2 [Compound 3],activity in at least one biological assay,[1],showed activity
Cc1sc2c(c1C)C(c1ccc(Cl)cc1)=N[C@H](CC(=O)OC(C)(C)C)c1nnc(C)n1-2 [JQ (R) enantiomer],adipogenesis / lipid accumulation (Oil Red O staining),[2],no effect on the generation of lipid
Cc1sc2c(c1C)C(c1ccc(Cl)cc1)=N[C@@H](CC(=O)OC(C)(C)C)c1nnc(C(F)(F)F)n1-2 [JQ11],liver expression of ACC beta,[3],reduced the expression
same,liver expression of DGAT,[3],reduced the expression
same,liver expression of FAS,[3],not statistically significant
same,liver expression of PPARγ2,[3],reduced the expression
same,liver expression of SCD1,[3],reduced the expression
same,liver expression of SREBP,[3],reduced the expression
"Cc1sc2c(c1C)C(c1ccc(Cl)cc1)=N[C@@H](CC(=O)OC(C)(C)C)c1nnc(C)n1-2 [JQ1 (S) enantiomer, (S)-tert-Butyl 2-(4-(4-chlorophenyl)-2,3,9-trimethyl-6H-thieno[3,2-f][1,2,4]triazolo[4,3-a][1,4]diazepin-6-yl)acetate]",adipogenesis / lipid accumulation (Oil Red O staining),[2],inhibited lipid accumulation
same,adipogenesis / lipid accumulation (Oil Red O staining),[2]; listed as JQ (S) enantiomer,inhibited adipogenesis in a dose dependent manner
Cc1sc2c(c1C)C(c1ccc(Cl)cc1)=N[C@@H](CC(=O)OC(C)(C)C)c1nnc(C)n1-2 [JQ],liver weight,[4]; [9],statistically significant reductions
same,subcutaneous fat weight,[4]; [9],statistically significant reductions
same,hepatic steatosis / liver histology (H&E),[4]; two week treatment,complete block in hepatic steatosis
same,food intake,[5],mildly inhibited
same,weight gain,[5],blocked weight gain
same,induction of C/EBPα expression,[6],significantly blocked the induction
same,blood glucose after insulin injection,"[7]; 7 weeks high fat diet and 50 mg/kg daily, 4 h fast, insulin 0.5 U/kg intraperitoneal",sustained decrease in blood glucose up to 2 hours
same,area under the curve for change in blood glucose,"[7]; 2 hour time course after insulin, p<0.05",statistically significant decrease
same,induction of PPARγ expression,[8],significantly blocked the induction
Cc1sc2c(c1C)C(c1ccc(Cl)cc1)=N[C@@H](CC(=O)N/N=C/c1ccc(O)cc1)c1nnc(C)n1-2 [Compound 4],activity in at least one biological assay,[1],showed activity
